Reference: publication PMC3304000 (Bioorganic & medicinal chemistry, 2012)
Converted amounts (≈) assume the structure as drawn. “And” between values parts separate entries of the source, which are not always exact repeats. Identical values can stand only once.

system: MDR-TB resistant to HREZSKP; test: microbe, parasite or virus in culture; format: cell-based; details: Mycobacterium tuberculosis

First: O=C(OCc1ccccc1)c1coc(-c2ccccc2)n1 [Compound 2]
Second: O=C(OCc1ccccc1)c1csc(-c2ccccc2)n1 [Compound 5]
The MIC of the first is 4-fold lower: 2.5 µg/mL (≈ 8.95 µM) for the first, 10 µg/mL (≈ 33.9 µM) for the second.

Cc1ccn2c(C(=O)OCc3ccccc3)c(C)nc2c1 [Compound 11, benzyl 2,7-dimethylimidazo[1,2-a]pyridine-3-carboxylate] was tested, and the MIC was less than 0.01 µg/mL.

For O=[N+]([O-])c1cn2c(n1)OC[C@@H](OCc1ccc(OC(F)(F)F)cc1)C2 [PA-824, reference compound], the MIC was 0.45 µM to 0.86 µM and 0.16 µg/mL to 0.31 µg/mL.

system: XDR-TB resistant to HRESKO; test: microbe, parasite or virus in culture; format: cell-based; details: Mycobacterium tuberculosis

Going from O=C(OCc1ccccc1)c1coc(-c2ccccc2)n1 [Compound 2] to O=C(OCc1ccccc1)c1csc(-c2ccccc2)n1 [Compound 5], the MIC rises from 1.25 µg/mL (≈ 4.48 µM) to 5 µg/mL (≈ 16.9 µM) (4-fold).

First: Cc1ccn2c(C(=O)OCc3ccccc3)c(C)nc2c1 [Compound 11, benzyl 2,7-dimethylimidazo[1,2-a]pyridine-3-carboxylate]
Second: O=[N+]([O-])c1cn2c(n1)OC[C@@H](OCc1ccc(OC(F)(F)F)cc1)C2 [PA-824, reference compound]
The MIC of the first is lower: less than 0.01 µg/mL for the first, 0.31 µg/mL (≈ 0.863 µM) for the second.

system: MDR-TB resistant to HREKP; test: microbe, parasite or virus in culture; format: cell-based; details: Mycobacterium tuberculosis

Compared with O=C(OCc1ccccc1)c1coc(-c2ccccc2)n1 [Compound 2], O=C(OCc1ccccc1)c1csc(-c2ccccc2)n1 [Compound 5] is 4.2-fold higher in MIC: 0.3 µg/mL (≈ 1.07 µM) for the first, 1.25 µg/mL (≈ 4.23 µM) for the second.

With Cc1ccn2c(C(=O)OCc3ccccc3)c(C)nc2c1 [Compound 11, benzyl 2,7-dimethylimidazo[1,2-a]pyridine-3-carboxylate] the MIC was less than 0.01 µg/mL.

O=[N+]([O-])c1cn2c(n1)OC[C@@H](OCc1ccc(OC(F)(F)F)cc1)C2 [PA-824, reference compound] was tested, and the MIC was 0.45 µM to 0.86 µM and 0.16 µg/mL to 0.31 µg/mL.

system: MDR-TB resistant to HRERb; test: microbe, parasite or virus in culture; format: cell-based; details: Mycobacterium tuberculosis, MDR-TB resistant to HRERb (isoniazid, rifampin, ethambutol, rifabutin)

Cc1ccn2c(C(=O)OCc3ccccc3)c(C)nc2c1 [Compound 11, benzyl 2,7-dimethylimidazo[1,2-a]pyridine-3-carboxylate] and O=[N+]([O-])c1cn2c(n1)OC[C@@H](OCc1ccc(OC(F)(F)F)cc1)C2 [PA-824, reference compound] cannot be ordered by MIC: 0.6 µM for the first, 0.45 to 0.86 µM for the second.

same assay, conditions: Mycobacterium tuberculosis, MDR-TB resistant to HRERb; value in parentheses

First: O=C(OCc1ccccc1)c1coc(-c2ccccc2)n1 [Compound 2]
Second: O=C(OCc1ccccc1)c1csc(-c2ccccc2)n1 [Compound 5]
The MIC of the first is 4-fold lower: 2.5 µg/mL for the first, 10 µg/mL for the second.

Cc1ccn2c(C(=O)OCc3ccccc3)c(C)nc2c1 [Compound 11, benzyl 2,7-dimethylimidazo[1,2-a]pyridine-3-carboxylate] and O=[N+]([O-])c1cn2c(n1)OC[C@@H](OCc1ccc(OC(F)(F)F)cc1)C2 [PA-824, reference compound] cannot be ordered by MIC: 0.16 µg/mL for the first, 0.16 to 0.31 µg/mL for the second.

system: XDR-TB resistant to HREKO; test: microbe, parasite or virus in culture; format: cell-based; details: Mycobacterium tuberculosis

First: O=C(OCc1ccccc1)c1coc(-c2ccccc2)n1 [Compound 2]
Second: O=C(OCc1ccccc1)c1csc(-c2ccccc2)n1 [Compound 5]
The MIC of the first is 2-fold lower: 2.5 µg/mL (≈ 8.95 µM) for the first, 5 µg/mL (≈ 16.9 µM) for the second.

Going from Cc1ccn2c(C(=O)OCc3ccccc3)c(C)nc2c1 [Compound 11, benzyl 2,7-dimethylimidazo[1,2-a]pyridine-3-carboxylate] to O=[N+]([O-])c1cn2c(n1)OC[C@@H](OCc1ccc(OC(F)(F)F)cc1)C2 [PA-824, reference compound], the MIC rises from less than 0.01 µg/mL to 0.08 µg/mL (≈ 0.223 µM).
